This is an account of results in patent EP4806900A2, “RAS INHIBITORS” (Revolution Medicines, Inc., priority 2019, dated 2021).

The test system of data set [1] is NCI-H358 KRASG12C xenograft. Description: In vivo NSCLC K-Ras G12C xenograft model (tumor growth). Details: species or system BALB/c nude mice. Particulars: single agents: Compound C 60 mg/kg intravenous once weekly; SHP2 inhibitor (RMC-4550) 30 mg/kg daily oral.
Data set [2] relates to NCI-H358 (K-Ras G12C). Description: CellTiter-Glo cell viability assay, NCI-H358. It counts as cell-based, human. The essentials: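 Compounds dispensed directly onto plated NCI-H358 cells; plates equilibrated to room temperature on day 5 before luminescence read-out. Signal normalized to mean DMSO control (%) and fitted by four-parameter logistic.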
The mark [3] stands for this setting: Table 5, read-out: H358 Cell Viability assay data (K-Ras G12C, IC50).

“And” between values parts separate entries of the source, which are not always exact repeats. Identical values can stand only once. Like-named read-outs stand apart in the source and are kept apart here.

In the case of `Cc1nc(N2CCC3(CC2)CO[C@@H](C)[C@H]3N)c(CO)nc1-c1cccc(Cl)c1Cl` [RMC-4550], the “mice with tumor regression (greater than 10% reduction of tumor volume at end of study)” value in data set [1] was 5 out of 10. For the setting “from CCn1c(-c2cccnc2[C@H](C)OC)c(CC(C)(C)CO)c2nc(-c3csc(C[C@H](NC(=O)OC(C)(C)C)C(=O)N4CCC[C@@H](C(=O)O)N4)n3)ccc21, ester bond, EDCI HCl/HOBt/DIPEA, DCM, 6.4 mM, 25.0 °C, 16.0 h”, `CCn1c(-c2cccnc2[C@H](C)OC)c2c3nc(ccc31)-c1csc(n1)C[C@H](NC(=O)OC(C)(C)C)C(=O)N1CCC[C@H](N1)C(=O)OCC(C)(C)C2` registered a ring closure, yield of all isomers of 43%. Regarding `CCn1c(-c2cccnc2[C@H](C)OC)c2c3cc(ccc31)-c1nc(co1)C[C@H](NC(=O)OC(C)(C)C)C(=O)N1CCC[C@H](N1)C(=O)OCC(C)(C)C2`, under “from CCn1c(-c2cccnc2[C@H](C)OC)c(CC(C)(C)COC(=O)[C@@H]2CCCN(C(=O)[C@H](Cc3coc(Br)n3)NC(=O)OC(C)(C)C)N2)c2cc(B3OC(C)(C)C(C)(C)O3)ccc21, cc_pd bond, XPhos Pd G3, dioxane, […], 70.0 °C, 4.0 h”, the ring closure, yield of all isomers was 56%.

In turn, `CCn1c(-c2cccnc2[C@H](C)OC)c2c3cc(ccc31)-c1nc(nn1C)C[C@H](NC(=O)OC(C)(C)C)C(=O)N1CCC[C@H](N1)C(=O)OCC(C)(C)C2` came in with a ring closure, yield of all isomers (from CCn1c(-c2cccnc2[C@H](C)OC)c(CC(C)(C)COC(=O)[C@@H]2CCCN(C(=O)[C@H](Cc3nc(Br)n(C)n3)NC(=O)OC(C)(C)C)N2)c2cc(B3OC(C)(C)C(C)(C)O3)ccc21, cc_pd bond, XPhos Pd G3, dioxane, 71.7 mM, 75.0 °C, 3.0 h) of 56.8%. In the case of `CCn1c(-c2ccccc2COC)c2c3cc(ccc31)-c1cc(cc([N+](=O)[O-])c1)C[C@H](NC(=O)OC(C)(C)C)C(=O)N1CCC[C@H](N1)C(=O)OCC(C)(C)C2`, under “from CCn1c(-c2ccccc2COC)c(CC(C)(C)CO)c2cc(-c3cc(C[C@H](NC(=O)OC(C)(C)C)C(=O)N4CCC[C@@H](C(=O)O)N4)cc([N+](=O)[O-])c3)ccc21, ester bond, EDCI/HOBt/DIPEA, DCM, 6.4 mM, 25.0 °C, 16.0 h”, the ring closure, yield of all isomers turned out to be 73%. Turning to `CCn1c(-c2cccnc2[C@H](C)OC)c2c3cc(ccc31)N1CCC[C@@H](C[C@H](NC(=O)OCc3ccccc3)C(=O)N3CCC[C@H](N3)C(=O)OCC(C)(C)C2)C1`, the ring closure, yield of all isomers (from CCn1c(-c2cccnc2[C@H](C)OC)c(CC(C)(C)CO)c2cc(N3CCC[C@@H](C[C@H](NC(=O)OCc4ccccc4)C(=O)N4CCC[C@@H](C(=O)O)N4)C3)ccc21, ester bond, EDCI/HOBt/DIPEA, DCM, 36.7 mM, 25.0 °C, 6.0 h) was determined as 36%. In turn, `CCn1c(-c2cccnc2[C@H](C)OC)c2c3cc(ccc31)-c1cnc(o1)C[C@H](NC(=O)OC(C)(C)C)C(=O)N1CCC[C@H](N1)C(=O)OCC(C)(C)C2` showed a ring closure, yield of all isomers (from CCn1c(-c2cccnc2[C@H](C)OC)c(CC(C)(C)CO)c2cc(-c3cnc(C[C@H](NC(=O)OC(C)(C)C)C(=O)N4CCC[C@@H](C(=O)O)N4)o3)ccc21, ester bond, EDCI/HOBt, DIPEA, DCM, 13.7 mM, 0.0 °C, 2.0 h) of 56.4%. Take `CCn1c(-c2cccnc2[C@H](C)OC)c2c3cc(ccc31)-c1cc(cc(C(F)F)c1)C[C@H](NC(=O)OC(C)(C)C)C(=O)N1CCC[C@H](N1)C(=O)OCC(C)(C)C2`: the ring closure, yield of all isomers (from CCn1c(-c2cccnc2[C@H](C)OC)c(CC(C)(C)CO)c2cc(-c3cc(C[C@H](NC(=O)OC(C)(C)C)C(=O)N4CCC[C@@H](C(=O)O)N4)cc(C(F)F)c3)ccc21, ester bond, EDCI/HOBt/DIPEA, DCM, 16.0 h) worked out at 51%. For `CO[C@@H](C)c1ncc(N2CCN(C(=O)OCc3ccccc3)CC2)cc1-c1c2c3cc(ccc3n1CC(F)(F)F)-c1cccc(c1)C[C@H](NC(=O)OC(C)(C)C)C(=O)N1CCC[C@H](N1)C(=O)OCC(C)(C)C2`, the ring closure, yield of all isomers (from CO[C@@H](C)c1ncc(N2CCN(C(=O)OCc3ccccc3)CC2)cc1-c1c(CC(C)(C)CO)c2cc(-c3cccc(C[C@H](NC(=O)OC(C)(C)C)C(=O)N4CCC[C@@H](C(=O)O)N4)c3)ccc2n1CC(F)(F)F, ester bond, EDCI/HOBt/DIPEA, DCM, 9.87 mM, 25.0 °C, 12.0 h) came to 67.9%. The compound `CCn1c(-c2cccnc2[C@H](C)OC)c2c3cc(ccc31)N1CCO[C@@H](C[C@H](NC(=O)OCc3ccccc3)C(=O)N3CCC[C@H](N3)C(=O)OCC(C)(C)C2)C1` came in with a ring closure, yield of all isomers (from CCn1c(-c2cccnc2[C@H](C)OC)c(CC(C)(C)CO)c2cc(N3CCO[C@@H](C[C@H](NC(=O)OCc4ccccc4)C(=O)N4CCC[C@@H](C(=O)O)N4)C3)ccc21, ester bond, EDCI/HOBt/DIPEA, DCM, 12.75 mM, 25.0 °C, 16.0 h) of 66%. Take `CO[C@@H](C)c1ncccc1-c1c2c3cc(ccc3n1CC(F)(F)F)N1CCO[C@@H](C[C@H](NC(=O)OCc3ccccc3)C(=O)N3CCC[C@H](N3)C(=O)OCC(C)(C)C2)C1`: the ring closure, yield of all isomers (from CO[C@@H](C)c1ncccc1-c1c(CC(C)(C)CO)c2cc(N3CCO[C@@H](C[C@H](NC(=O)OCc4ccccc4)C(=O)N4CCC[C@@H](C(=O)O)N4)C3)ccc2n1CC(F)(F)F, ester bond, EDCI/HOBt/DIPEA, DCM, 11.25 mM, 16.0 h) stood at 74%. Where the note is “from CC(C)[Si](Oc1cc(C[C@H](NC(=O)OC(C)(C)C)C(=O)N2CCC[C@@H](C(=O)O)N2)cc(-c2ccc3[nH]c(I)c(CC(C)(C)CO)c3c2)c1)(C(C)C)C(C)C, ester bond, EDCI/HOBt/DIPEA, DCM, 22.8 mM, 25.0 °C, 16.0 h”, `CC(C)[Si](Oc1cc2cc(c1)-c1ccc3[nH]c(I)c(c3c1)CC(C)(C)COC(=O)[C@@H]1CCCN(N1)C(=O)[C@@H](NC(=O)OC(C)(C)C)C2)(C(C)C)C(C)C` displayed a ring closure, yield of all isomers of 50%.

Turning to `CC1(C)COC(=O)[C@@H]2CCCN(N2)C(=O)[C@@H](NC(=O)OC(C)(C)C)Cc2cccc(c2)-c2ccc3[nH]c(I)c(c3c2)C1`, the ring closure, yield of all isomers (from CC(C)(CO)Cc1c(I)[nH]c2ccc(-c3cccc(C[C@H](NC(=O)OC(C)(C)C)C(=O)N4CCC[C@@H](C(=O)O)N4)c3)cc12, ester bond, EDCI/HOBt/DIPEA, DCM, 12.8 mM, 0.0 °C, 16.0 h) is 79.8%. Turning to `CCn1c(-c2cccnc2COC)c2c3cc(ccc31)-c1cc(O)cc(c1)C[C@H](NC(=O)[C@H](C(C)C)N(C)C(=O)[C@H]1CCN(C(=O)C#CCOC)C1)C(=O)N1CCC[C@H](N1)C(=O)OCC(C)(C)C2` [Compound A135], the IC50 in data set [2] (Homo sapiens, NCI-H358, read-out: H358 Cell Viability assay data (K-Ras G12C, IC50, uM), Table 5) is less than 0.01 µM. With `C=CC(=O)N1CC[C@H](C(=O)N(C)[C@H](C(=O)N[C@H]2Cc3cc(O)cc(c3)-c3ccc4c(c3)c(c(-c3cccnc3[C@H](C)OC)n4CC)CC(C)(C)COC(=O)[C@@H]3CCCN(N3)C2=O)C(C)C)C1` [Compound A75, (2S)-N-[(8S,14S,20M)-22-ethyl-4-hydroxy-21-{2-[(1S)-1-methoxyethyl]pyridin-3-yl}-18,18-dimethyl-9,15-dioxo-16-oxa-10,22,28-triazapentacyclo[18.5.2.1^2,^6.1^10,^14.0^23,^27]nonacosa-1(26),2,4,6(29),20,23(27),24-heptaen-8-yl]-3-methyl-2-{N-methyl-1-[(3S)-1-(prop-2-enoyl)pyrrolidin-3-yl]formamido}butanamide], the concentration for half-maximal inhibition (IC50) in data set [2] (setting [3]) is < 0.01 µM and 0.01 to 0.1 µM. Turning to `C=CC(=O)N1CC[C@H](C(=O)N(C)[C@H](C(=O)N[C@H]2Cc3cc(O)cc(c3)-c3ccc4c(c3)c(c(-c3cccc(CN(C)C)c3)n4CC)CC(C)(C)COC(=O)[C@@H]3CCCN(N3)C2=O)C(C)C)C1` [Compound A30], the half-inhibitory concentration (IC50) in data set [2] (setting [3]) was in the range of 0.01 to 0.1 µM. In the case of `C=CC(=O)N1CC[C@H](C(=O)N(C)[C@H](C(=O)N[C@H]2Cc3cc(N)cc(c3)-c3ccc4c(c3)c(c(-c3ccccc3CCOC)n4CC)CC(C)(C)COC(=O)[C@@H]3CCCN(N3)C2=O)C(C)C)C1` [Compound A2, (2S)-N-[(8S,14S)-4-amino-22-ethyl-21-[2-(2-methoxyethyl)phenyl]-18,18-dimethyl-9,15-dioxo-16-oxa-10,22,28-triazapentacyclo[18.5.2.1^2,6.1^10,^14.0^23,^27]nonacosa-1(26),2,4,6(29),20,23(27),24-heptaen-8-yl]-3-methyl-2-{N-methyl-1-[(3S)-1-(prop-2-enoyl)pyrrolidin-3-yl]formamido}butanamide], the half-inhibitory concentration (IC50) in data set [2] (setting [3]) is more than 1 µM. Regarding `C=CC(=O)N1C[C@H](C)[C@H](C(=O)N(C)[C@H](C(=O)N[C@H]2Cc3cc(O)cc(c3)-c3ccc4c(c3)c(c(-c3cccnc3COC)n4CC)CC(C)(C)COC(=O)[C@@H]3CCCN(N3)C2=O)C(C)C)C1` [Compound A56], the IC50 in data set [2] (setting [3]) is less than 0.01 µM. With `CCn1c(-c2cccnc2[C@H](C)OC)c2c3cc(ccc31)-c1cc(cc(O[Si](C(C)C)(C(C)C)C(C)C)c1)C[C@H](NC(=O)OC(C)(C)C)C(=O)N1CCC[C@H](N1)C(=O)OCC(C)(C)C2`, for the setting “from CCn1c(-c2cccnc2[C@H](C)OC)c(CC(C)(C)CO)c2cc(-c3cc(C[C@H](NC(=O)OC(C)(C)C)C(=O)N4CCC[C@@H](C(=O)O)N4)cc(O[Si](C(C)C)(C(C)C)C(C)C)c3)ccc21, ester bond, EDCI/HOBt/DIPEA, DCM, 15.3 mM, 25.0 °C, 16.0 h”, the ring closure, yield of all isomers came out at 42%. For `CCn1c(-c2ccccc2CN(C)C)c2c3cc(ccc31)-c1cc(O)cc(c1)C[C@H](NC(=O)[C@H](C(C)C)N(C)C(=O)c1ccc(NC(=O)/C=C/CN(C)C)cc1)C(=O)N1CCC[C@H](N1)C(=O)OCC(C)(C)C2` [Compound A49], the IC50 in data set [2] (setting [3]) was more than 1 µM. For the compound `CCn1c(-c2cccnc2COC)c2c3cc(ccc31)-c1cc(O)cc(c1)C[C@H](NC(=O)[C@H](C(C)C)N(C)C(=O)[C@H]1CCN(C(=O)C#CCN(C)C)C1)C(=O)N1CCC[C@H](N1)C(=O)OCC(C)(C)C2` [Compound A96], the IC50 in data set [2] (setting [3]) is less than 0.01 µM. `C=CC(=O)N1CC[C@H](C(=O)N(C)[C@H](C(=O)N[C@H]2Cc3cc(OC(=O)CCN4CCN(C)CC4)cc(c3)-c3ccc4c(c3)c(c(-c3ccccc3CCOC)n4CC)CC(C)(C)COC(=O)[C@@H]3CCCN(N3)C2=O)C(C)C)C1` [Compound A7]: the IC50 in data set [2] (setting [3]) fell in the range of 0.1 to 1 µM.
